Data on 21 compounds can be found in patent US10028992B2, “Methods of treating muscular dystrophy” (BOARD OF REGENTS OF THE NEVADA SYSTEM OF HIGHER EDUCATION …, priority 2012, dated 2018).

The assay has as its system α7 integrin promoter. Briefly: muscle cell-based assay: α7βgal+/− myoblasts/myotubes, LacZ reporter, β-galactosidase cleavage of FDG. Also noted: species or system mouse. Particulars: Myotubes; for Results in a α7+/− β-galactosidase assay, Myotubes, 0.5 uM: compound at 0.5 uM; for Results in a α7+/− β-galactosidase assay, Myotubes, 1 uM: compound at 1 uM; for Results in a α7+/− β-galactosidase assay, Myotubes, 5 uM: compound at 5 uM; for Results in a α7+/− β-galactosidase assay, Myotubes, 10 uM: compound at 10 uM; for Results in a α7+/− β-galactosidase assay, Myotubes, 20 uM: compound at 20 uM; for Results in a α7+/− β-galactosidase assay, Myotubes, 40 uM: compound at 40 uM. The gist of the method:
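Fluorescein generated from FDG by β-galactosidase reports α7 integrin promoter activity in differentiated myoblasts from α7+/− LacZ knock-in pups. Screening hits then went to dose-response, western blotting and a myostatin counterscreen.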

`O=C(Nc1ccccc1OC(=O)c1ccc(Cl)cc1)c1ccc(Cl)cc1` [drawing 401]: the “Results in a α7+/− β-galactosidase assay, Myotubes, 0.5 uM” value (from here on “Results … 0.5 uM”) was −0.03464; the “Results in a α7+/− β-galactosidase assay, Myotubes, 1 uM” value (shortened to “Results … 1 uM”) is 0.02857; the “Results in a α7+/− β-galactosidase assay, Myotubes, 5 uM” value (from here on “Results … Myotubes, 5 uM”) is −0.09525; the “Results in a α7+/− β-galactosidase assay, Myotubes, 10 uM” value (shortened to “Results … 10 uM”) is recorded as −0.1056. In addition, the “Results in a α7+/− β-galactosidase assay, Myotubes, 20 uM” value (shortened to “Results … 20 uM”) is −0.1495 and the “Results in a α7+/− β-galactosidase assay, Myotubes, 40 uM” value (shortened to “Results … 40 uM”) is on record as −0.3841.

For the compound `CC(NC(=O)c1ccc(C(C)(C)C)cc1)C(c1cccs1)N1CCOCC1` (stereo not drawn) [drawing 402], the “Results … 0.5 uM” value came to 0.08612; the “Results … 1 uM” value is listed as 0.07635; the “Results … Myotubes, 5 uM” value is given as 0.06551; the “Results … 10 uM” value came out at 0.1287. Further, the “Results … 20 uM” value was −0.144 and the “Results … 40 uM” value was −0.1386.

As to `CCC(=O)c1ccc(OCC(O)CN2CCOC(C)C2)cc1.O=C(O)C(=O)O` (stereo not drawn) [drawing 403], the “Results … 0.5 uM” value was 0.08149; the “Results … 1 uM” value was 0.03201; the “Results … Myotubes, 5 uM” value is −0.09666; the “Results … 10 uM” value is recorded as −0.1187. Further, the “Results … 20 uM” value stood at 0.08332 and the “Results … 40 uM” value amounted to 0.1461.

`CC1CCN(C(CNS(=O)(=O)c2ccccc2)c2ccccc2)CC1` (stereo not drawn) [drawing 404]: the “Results … 0.5 uM” value is 0.1307; the “Results … 1 uM” value is listed as 0.1946; the “Results … Myotubes, 5 uM” value is given as −0.1201; the “Results … 10 uM” value is given as −0.1176. Besides, the “Results … 20 uM” value is reported as −0.1296 and the “Results … 40 uM” value was −0.1429.

Take `COC(=O)c1ccc(/N=N/c2ccccc2)cc1` [drawing 405]: the “Results … 0.5 uM” value is −0.111; the “Results … 1 uM” value is listed as 0.1978; the “Results … Myotubes, 5 uM” value is listed as −0.1462; the “Results … 10 uM” value was −0.2093. For the same compound, the “Results … 20 uM” value is on record as −0.1861 and the “Results … 40 uM” value is −0.2357.

For `CN(CCC1CCCCO1)C(=O)CCc1nnc(CCCCc2ccccc2)o1` (stereo not drawn) [drawing 407], the “Results … 0.5 uM” value is listed as 0.03419; the “Results … 1 uM” value stood at 0.03033; the “Results … Myotubes, 5 uM” value is given as −0.2337; the “Results … 10 uM” value was −0.1125. The “Results … 20 uM” value was −0.1283 and the “Results … 40 uM” value is −0.1202.

`c1ccc(-c2nn[nH]n2)nc1` [drawing 408]: the “Results … 0.5 uM” value is listed as −0.05084; the “Results … 1 uM” value is listed as −0.03177; the “Results … Myotubes, 5 uM” value is listed as −0.024; the “Results … 10 uM” value was −0.07161. The “Results … 20 uM” value is reported as 0.03157 and the “Results … 40 uM” value came out at 0.04635.

Turning to `O=C(N/N=C/c1c[nH]c2ccccc12)c1cc(Cl)ccc1O` [drawing 409], the “Results … 0.5 uM” value was −0.05672; the “Results … 1 uM” value was −0.09286; the “Results … Myotubes, 5 uM” value is reported as 0.2441; the “Results … 10 uM” value is recorded as −0.1364. Also, the “Results … 20 uM” value amounted to 0.01214 and the “Results … 40 uM” value was −0.2587.

Turning to `O=C(O)C(Cc1ccc(O)cc1)N1C(=O)c2ccccc2C1=O` (stereo not drawn) [drawing 411], the “Results … 0.5 uM” value is 0.0905; the “Results … 1 uM” value is reported as 0.1588; the “Results … Myotubes, 5 uM” value was found to be 0.2927; the “Results … 10 uM” value is given as −0.09211. Further, the “Results … 20 uM” value came out at 0.2266 and the “Results … 40 uM” value worked out at 0.06733.

On to `CCN(CC)C(=O)c1sc2nc(-c3ccc(OC)cc3)cn2c1C` [drawing 412], for which the “Results … 0.5 uM” value is recorded as 0.08584; the “Results … 1 uM” value came to 0.05066; the “Results … Myotubes, 5 uM” value was 0.1198; the “Results … 10 uM” value is listed as −0.03387. Also, the “Results … 20 uM” value is reported as −0.01472 and the “Results … 40 uM” value is −0.1357.

With `Cc1ccsc1-c1nnc(S)n1C1CCCCC1` [drawing 413], the “Results … 0.5 uM” value worked out at 0.2221; the “Results … 1 uM” value was found to be 0.09759; the “Results … Myotubes, 5 uM” value is 0.1567; the “Results … 10 uM” value is given as −0.1231. In addition, the “Results … 20 uM” value is given as 0.1272 and the “Results … 40 uM” value was −0.178.

For the compound `O=C(N[C@@H](Cc1c[nH]c2ccccc12)C(=O)O)C1CCN(S(=O)(=O)c2cccs2)CC1` [drawing 414], the “Results … 0.5 uM” value was found to be 0.08394; the “Results … 1 uM” value is on record as 0.03833; the “Results … Myotubes, 5 uM” value was 0.03594; the “Results … 10 uM” value is given as −0.09429. Further, the “Results … 20 uM” value is listed as 0.01148 and the “Results … 40 uM” value is given as −0.09282.

As to `COC(=O)Cn1c(=O)c2c(nc3n2CC(C)CN3Cc2ccccc2)n(C)c1=O` (stereo not drawn) [drawing 415], the “Results … 0.5 uM” value stood at 0.05467; the “Results … 1 uM” value is recorded as 0.04855; the “Results … Myotubes, 5 uM” value was −0.1372; the “Results … 10 uM” value is −0.2301. Further, the “Results … 20 uM” value amounted to 0.01742 and the “Results … 40 uM” value is −0.09631.

As for `CCOC(=O)c1cc(C(=O)OCC)c(SCc2ccccc2)nc1O` [drawing 416], the “Results … 0.5 uM” value is recorded as −0.05564; the “Results … 1 uM” value is −0.06589; the “Results … Myotubes, 5 uM” value is listed as 0.2144; the “Results … 10 uM” value is −0.09676. Also, the “Results … 20 uM” value is listed as −0.147 and the “Results … 40 uM” value was −0.37.

For `Oc1nc2ccccc2nc1-c1c[nH]c2ccccc12` [drawing 417], the “Results … 0.5 uM” value is on record as −0.06072; the “Results … 1 uM” value is −0.2204; the “Results … Myotubes, 5 uM” value is −0.08742; the “Results … 10 uM” value was determined as 0.05064. Also, the “Results … 20 uM” value is given as −0.4132 and the “Results … 40 uM” value is given as −0.2613.

With `O=C(Nc1cc(-c2nc3ccccc3s2)ccc1Cl)c1ccc2c(c1)OCO2` [drawing 418], the “Results … 0.5 uM” value came out at 0.01013; the “Results … 1 uM” value is listed as −0.09877; the “Results … Myotubes, 5 uM” value stood at 0.05089; the “Results … 10 uM” value amounted to 0.3348. The “Results … 20 uM” value was −0.3294 and the “Results … 40 uM” value is reported as −0.3941.

As to `Cn1c(-c2ccccc2)cc2ccccc21` [drawing 419], the “Results … 0.5 uM” value is recorded as −0.1946; the “Results … 1 uM” value is −0.1516; the “Results … Myotubes, 5 uM” value is 0.03646; the “Results … 10 uM” value is listed as 0.2623. In addition, the “Results … 20 uM” value is reported as −0.2495 and the “Results … 40 uM” value is on record as −0.1512.

For the compound `COc1ccc(C(=O)/C=C2\C(=O)Nc3ccccc32)cc1OC` [drawing 420], the “Results … 0.5 uM” value is given as −0.03323; the “Results … 1 uM” value is on record as −0.07984; the “Results … Myotubes, 5 uM” value was determined as 0.02829; the “Results … 10 uM” value was 0.263. For the same compound, the “Results … 20 uM” value is −0.3062 and the “Results … 40 uM” value was −0.184.

Consider `CC(C(=O)Nc1ccc(C#N)cc1)N(C)CC(=O)Nc1cccc(F)c1` (stereo not drawn) [drawing 421], for which the “Results … 0.5 uM” value is 0.03075; the “Results … 1 uM” value is listed as −0.03964; the “Results … Myotubes, 5 uM” value is reported as −0.1345; the “Results … 10 uM” value is 0.2992. Besides, the “Results … 20 uM” value is recorded as −0.138 and the “Results … 40 uM” value turned out to be 0.2085.

In the case of `CC(C(=O)Nc1ccc(C#N)cc1)N(C)CC(=O)Nc1cccc(F)c1` (stereo not drawn) [drawing 422], the “Results … 0.5 uM” value is given as −0.07067; the “Results … 1 uM” value is −0.1638; the “Results … Myotubes, 5 uM” value is recorded as 0.1526; the “Results … 10 uM” value was found to be 0.4825. In addition, the “Results … 20 uM” value was −0.1663 and the “Results … 40 uM” value stood at 0.2317.

With `CC1Cc2ccccc2N1C(=O)CSc1nnc(N)s1` (stereo not drawn) [drawing 423], the “Results … 0.5 uM” value was −0.03474; the “Results … 1 uM” value is given as −0.1188; the “Results … Myotubes, 5 uM” value was −0.01338; the “Results … 10 uM” value is reported as 0.3723. In addition, the “Results … 20 uM” value is reported as −0.1603 and the “Results … 40 uM” value is 0.2399.
